What was measured:
[1] = test system: TRZAWR (Wheat, Winter, cv Riband); assay: Postemergence herbicidal evaluation; format: in vivo, Triticum aestivum
Summary of the method: (§1)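 Seedlings grown for about two weeks were sprayed postemergence and then kept under standard greenhouse care. Injury was rated visually 4–5 weeks after treatment on a 0–9 scale against untreated controls, and ratings from repeat tests were averaged.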

[2] = test system: ECHORC (Echinochloa oryzoides); assay: Flooded paddy, preemergence weed control; format: in vivo, Echinochloa oryzoides (Ard.) Fritsch.; conditions: rated 3-4 weeks after treatment, 0-9 rating scale
Summary of the method: (§2)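 Preemergence, flooded: propagules planted at 0.5 cm depth in silt loam, water level maintained at 1.5 to 3 cm over soil, containers kept on greenhouse benches. Activity scored 0-9 by eye relative to a control plant.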

SETVI (Setaria viridis) [3] = assay: Preemergence herbicidal evaluation; format: in vivo, (L.) Beau; conditions: rated 4-5 weeks after treatment
Summary of the method: (§3)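 Each species was sown separately in potting soil over roughly one inch of soil, and the surface sprayed with compound dissolved in aqueous acetone. Assessment used a 0–9 visual scale against a control after four to five weeks.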

[4] = test system: ECHCG (Echinochloa crus-galli); assay: Preemergence herbicidal evaluation; format: in vivo, (L.) Beau; conditions: rated 4-5 weeks after treatment
Summary of the method: as §3

[5] = test system: GLXMAW (Soybean, Williams); assay: Preemergence herbicidal evaluation; format: in vivo, Glycine max, (L.) Merr. cv Williams; conditions: rated 4-5 weeks after treatment
[6] = test system: MOOVA (Monochoria vaginalis); assay: Flooded paddy, preemergence weed control; format: in vivo, Presl.; conditions: rated 3-4 weeks after treatment, 0-9 rating scale
Summary of the method: as §2

[7] = test system: IPOHE (Ipomoea hederacea); assay: Postemergence herbicidal evaluation; format: in vivo, (L.) Jacq.
Summary of the method: as §1

SETVI (Setaria viridis) [8] = assay: Postemergence herbicidal evaluation; format: in vivo, (L.) Beau
Summary of the method: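 Visual injury score (0-9: stand, vigor, malformation, size, chlorosis, overall appearance vs untreated control) taken four to five weeks post-spray. Two-week-old seedlings received about 0.0040 to 1.000 kg/ha active compound in acetone/water with 0.5% TWEEN 20.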

CYPIR (Cyperus iria) = assay: Flooded paddy, preemergence weed control; format: in vivo; conditions: rated 3-4 weeks after treatment, 0-9 rating scale
Summary of the method: as §2

ZEAMX (Corn, Field) = assay: Preemergence herbicidal evaluation; format: in vivo, Zea mays, L.; conditions: rated 4-5 weeks after treatment

Structure (SMILES) | Postemergence herbicidal rating, TRZAWR ([1]; rate 0.0320 kg/ha) | Postemergence herbicidal rating, TRZAWR ([1]; rate 0.0620 kg/ha) | herbicidal rating, ECHORC ([2]; rate 0.0320 kg/ha) | herbicidal rating, ECHORC ([2]; rate 0.1250 kg/ha) | Preemergence herbicidal rating SETVI (SETVI (Setaria viridis) [3]; Rate 0.0620 kg/ha) | Preemergence herbicidal rating SETVI (SETVI (Setaria viridis) [3]; Rate 0.1250 kg/ha) | Preemergence herbicidal rating SETVI (SETVI (Setaria viridis) [3]; Rate 0.2500 kg/ha) | Preemergence herbicidal rating ECHCG ([4]; Rate 0.0620 kg/ha) | Preemergence herbicidal rating ECHCG ([4]; Rate 0.1250 kg/ha) | Preemergence herbicidal rating ECHCG ([4]; Rate 0.2500 kg/ha) | Preemergence herbicidal rating GLXMAW ([5]; Rate 0.0620 kg/ha) | Preemergence herbicidal rating GLXMAW ([5]; Rate 0.1250 kg/ha) | Preemergence herbicidal rating GLXMAW ([5]; Rate 0.2500 kg/ha) | herbicidal rating, MOOVA ([6]; rate 0.0320 kg/ha) | herbicidal rating, MOOVA ([6]; rate 0.1250 kg/ha) | Postemergence herbicidal rating, IPOHE ([7]; rate 0.0320 kg/ha) | Postemergence herbicidal rating, IPOHE ([7]; rate 0.0620 kg/ha) | Postemergence herbicidal rating, SETVI (SETVI (Setaria viridis) [8]; rate 0.0320 kg/ha) | Postemergence herbicidal rating, SETVI (SETVI (Setaria viridis) [8]; rate 0.0620 kg/ha) | herbicidal rating, CYPIR (CYPIR (Cyperus iria); rate 0.0320 kg/ha) | also measured
Cc1cc(C)nc(-c2nsc3ccc(-n4c(=O)cc(C(F)(F)F)n(C)c4=O)cc23)n1 [Compound 40, 3-[3-(4,6-dimethyl-2-pyrimidinyl)-1,2-benzisothiazol-5-yl]-1-methyl-6-(trifluoromethyl)uracil] | 3.5 | 4.0 | 2.0 | 6.0 | 3.0 | 9.0 | 9.0 | 3.0 | 7.0 | 8.0 | 2.0 | 2.0 | 5.0 | 7.0 | 9.0 | 9.0 | 9.0 | 3.0 | 9.0 | 5.0 | herbicidal rating, CYPIR (CYPIR (Cyperus iria); rate 0.1250 kg/ha): 6.0; Preemergence herbicidal rating ZEAMX (ZEAMX (Corn, Field); Rate 0.0620 kg/ha): 4.0; Preemergence herbicidal rating ZEAMX (ZEAMX (Corn, Field); Rate 0.1250 kg/ha): 8.0; Preemergence herbicidal rating ZEAMX (ZEAMX (Corn, Field); Rate 0.2500 kg/ha): 9.0
Cc1ccc(-c2nsc3ccc(-n4c(=O)cc(C(F)(F)F)n(C)c4=O)cc23)nc1 [Compound 42, 1-methyl-3-[3-(5-methyl-2-pyridyl)-1,2-benzisothiazol-5-yl]-6-(trifluoromethyl)uracil] | 4.0 | 5.0 | 2.0 | 6.0 | 5.0 | 7.5 | 9.0 | 1.0 | 5.5 | 8.5 | 0.0 | 1.0 | 2.5 | 8.0 | 9.0 | 9.0 | 9.0 | 5.0 | 5.0 | 3.0 | Postemergence herbicidal rating, TRZAWR ([1]; rate 0.1250 kg/ha): 5.0; Postemergence herbicidal rating, IPOHE ([7]; rate 0.1250 kg/ha): 9.0; Postemergence herbicidal rating, SETVI (SETVI (Setaria viridis) [8]; rate 0.1250 kg/ha): 9.0; herbicidal rating, CYPIR (CYPIR (Cyperus iria); rate 0.1250 kg/ha): 6.0; Preemergence herbicidal rating ZEAMX (ZEAMX (Corn, Field); Rate 0.0620 kg/ha): 3.5; Preemergence herbicidal rating ZEAMX (ZEAMX (Corn, Field); Rate 0.1250 kg/ha): 6.0; Preemergence herbicidal rating ZEAMX (ZEAMX (Corn, Field); Rate 0.2500 kg/ha): 6.5
CCOc1cc(OCC)nc(-c2nsc3ccc(-n4c(=O)cc(C(F)(F)F)n(C)c4=O)cc23)n1 [Compound 43, 3-[3-(4,6-diethoxy-2-pyrimidinyl)-1,2-benzisothiazol-5-yl]-1-methyl-6-(trifluoromethyl)uracil] | 2.5 | 3.5 | 5.0 | 9.0 | 9.0 | 9.0 | 9.0 | 0.0 | 0.0 | 3.0 | 1.0 | 3.0 | 5.0 | 4.0 | 6.0 | 9.0 | 9.0 | 5.0 | 4.0 | 0.0 | herbicidal rating, CYPIR (CYPIR (Cyperus iria); rate 0.1250 kg/ha): 5.0; Preemergence herbicidal rating ZEAMX (ZEAMX (Corn, Field); Rate 0.0620 kg/ha): 2.0; Preemergence herbicidal rating ZEAMX (ZEAMX (Corn, Field); Rate 0.1250 kg/ha): 2.0; Preemergence herbicidal rating ZEAMX (ZEAMX (Corn, Field); Rate 0.2500 kg/ha): 6.0
Cc1cccnc1-c1nsc2cc(F)c(-n3c(=O)cc(C(F)(F)F)n(C)c3=O)cc12 [Compound 44, 3-[6-fluoro-3-(3-methyl-2-pyridyl)-1,2-benzisothiazol-5-yl]-1-methyl-6-(trifluoromethyl)uracil] | 4.0 | 5.0 | 8.5 | 9.0 | 9.0 | 9.0 | 9.0 | 9.0 | 9.0 | 9.0 | 5.0 | 6.5 | 9.0 | 8.5 | 9.0 | 9.0 | 9.0 | 9.0 | 9.0 | 8.0 | herbicidal rating, ECHORC ([2]; rate 0.0080 kg/ha): 3.0; herbicidal rating, MOOVA ([6]; rate 0.0080 kg/ha): 0.0; herbicidal rating, CYPIR (CYPIR (Cyperus iria); rate 0.0080 kg/ha): 0.0; herbicidal rating, CYPIR (CYPIR (Cyperus iria); rate 0.1250 kg/ha): 9.0; Preemergence herbicidal rating ZEAMX (ZEAMX (Corn, Field); Rate 0.0620 kg/ha): 7.5; Preemergence herbicidal rating ZEAMX (ZEAMX (Corn, Field); Rate 0.1250 kg/ha): 7.5; Preemergence herbicidal rating ZEAMX (ZEAMX (Corn, Field); Rate 0.2500 kg/ha): 9.0
Cc1cccnc1-c1nsc2cc(F)c(N3C(=O)C4=C(CCCC4)C3=O)cc12 [Compound 46, N-[6-fluoro-3-(3-methyl-2-pyridyl)-1,2-benzisothiazol-5-yl]-1-cyclohexene-1,2-dicarboximide] | 4.0 | 4.5 | 5.0 | 7.0 | 9.0 | 9.0 | 9.0 | 1.0 | 5.0 | 8.0 | 0.0 | 1.0 | 2.0 | 7.0 | 7.0 | 9.0 | 9.0 | 3.0 | 4.0 | 1.0 | Postemergence herbicidal rating, TRZAWR ([1]; rate 0.1250 kg/ha): 5.0; Postemergence herbicidal rating, IPOHE ([7]; rate 0.1250 kg/ha): 9.0; Postemergence herbicidal rating, SETVI (SETVI (Setaria viridis) [8]; rate 0.1250 kg/ha): 9.0; herbicidal rating, CYPIR (CYPIR (Cyperus iria); rate 0.1250 kg/ha): 3.0; Preemergence herbicidal rating ZEAMX (ZEAMX (Corn, Field); Rate 0.0620 kg/ha): 0.0; Preemergence herbicidal rating ZEAMX (ZEAMX (Corn, Field); Rate 0.1250 kg/ha): 0.0; Preemergence herbicidal rating ZEAMX (ZEAMX (Corn, Field); Rate 0.2500 kg/ha): 0.0

— US6706663B2, “Herbicidal 3-heterocyclic substituted benzisothiazole and benzisoxazole compounds” (Wyeth, priority 2000, dated 2004)
